In ChEMBL document CHEMBL3124756, “Hepatitis C virus NS5A replication complex inhibitors. Part 6: Discovery of a novel and highly potent biarylimidazole chemotype with inhibitory activity toward genotypes 1a and 1b replicons” (J Med Chem, 2014):

Test system: not listed separately
Experiment: Cytotoxicity against human HuH7 cells infected with HCV genotype 1b after 72 hrs by Alamar blue assay
Assay type: cell-based, Huh-7
Conditions: not given; call rule not given here

First: CN(C)[C@@H](C(=O)N1CCC[C@H]1c1nc2cc(-c3cnc(-c4ccc5[nH]c([C@@H]6CCCN6C(=O)[C@@H](c6ccccc6)N(C)C)nc5c4)o3)ccc2[nH]1)c1ccccc1
Second: CN(C)[C@@H](C(=O)N1CCC[C@H]1c1nc2cc(C#Cc3ccc4[nH]c([C@@H]5CCCN5C(=O)[C@@H](c5ccccc5)N(C)C)nc4c3)ccc2[nH]1)c1ccccc1
The CC50 at 72 h of the first is higher: > 10000 nM for the first, 6390 nM for the second.

O=C(Cc1ccccc1)N1CCC[C@H]1c1ncc(-c2ccc(-c3ccc(-c4cnc([C@@H]5CCCN5C(=O)Cc5ccccc5)[nH]4)cc3)cc2)[nH]1 and O=C(Cc1ccccc1)N1CCC[C@H]1c1nc2ccc(C#Cc3ccc4nc([C@@H]5CCCN5C(=O)Cc5ccccc5)oc4c3)cc2o1 cannot be ordered by CC50 at 72 h: > 10000 nM for the first, > 10000 nM for the second.

CN(C)[C@@H](C(=O)N1CCC[C@H]1C(=O)Nc1ccc(-c2cnc(-c3cccc(NC(=O)[C@@H]4CCCN4C(=O)[C@@H](c4ccccc4)N(C)C)c3)o2)cc1)c1ccccc1 and CN(C)[C@@H](C(=O)N1CCC[C@H]1c1nc2cc(C#Cc3ccc4oc([C@@H]5CCCN5C(=O)[C@@H](c5ccccc5)N(C)C)nc4c3)ccc2o1)c1ccccc1 are within 1.5-fold of each other in CC50 at 72 h: 5760 nM for the first, 4450 nM for the second.

Test system: Hepatitis C virus
Experiment: Antiviral activity against Hepatitis C virus genotype 1a infected in human HuH7 cells after 5 days by ELISA
Assay type: functional, organism-based, Hepacivirus hominis
Conditions: subtype 1a, Huh-7, 120 h

Going from CN(C)[C@@H](C(=O)N1CCC[C@H]1c1nc2cc(-c3cnc(-c4ccc5[nH]c([C@@H]6CCCN6C(=O)[C@@H](c6ccccc6)N(C)C)nc5c4)o3)ccc2[nH]1)c1ccccc1 to CN(C)[C@@H](C(=O)N1CCC[C@H]1c1nc2cc(C#Cc3ccc4[nH]c([C@@H]5CCCN5C(=O)[C@@H](c5ccccc5)N(C)C)nc4c3)ccc2[nH]1)c1ccccc1, the EC50 falls from 973 nM to 232 nM (4.2-fold).

O=C(Cc1ccccc1)N1CCC[C@H]1c1nc2ccc(C#Cc3ccc4nc([C@@H]5CCCN5C(=O)Cc5ccccc5)oc4c3)cc2o1 and CN(C)[C@@H](C(=O)N1CCC[C@H]1c1nc2cc(C#Cc3ccc4oc([C@@H]5CCCN5C(=O)[C@@H](c5ccccc5)N(C)C)nc4c3)ccc2o1)c1ccccc1 cannot be ordered by EC50: > 1000 nM for the first, > 1000 nM for the second.

Test system: Hepatitis C virus
Experiment: Antiviral activity against Hepatitis C virus genotype 1a infected in human HuH7 cells after 72 hrs by FRET assay
Assay type: functional, organism-based, Hepacivirus hominis
Conditions: subtype 1a, Huh-7, 72 h

In order of falling EC50:
1. O=C(Cc1ccccc1)N1CCC[C@H]1c1ncc(-c2ccc(-c3ccc(-c4cnc([C@@H]5CCCN5C(=O)Cc5ccccc5)[nH]4)cc3)cc2)[nH]1  283 nM
2. CN(C)[C@@H](C(=O)N1CCC[C@H]1C(=O)Nc1ccc(-c2cnc(-c3cccc(NC(=O)[C@@H]4CCCN4C(=O)[C@@H](c4ccccc4)N(C)C)c3)o2)cc1)c1ccccc1  1.6 nM

Test system: not listed separately
Experiment: Drug metabolism in assay medium assessed as parent compound level at 5 uM after 48 hrs by LC/MS analysis
Assay type: physicochemical
Conditions: not given

In the case of O=C(Cc1ccccc1)N1CCC[C@H]1c1nc2ccc(C#Cc3ccc4nc([C@@H]5CCCN5C(=O)Cc5ccccc5)oc4c3)cc2o1, the Drug metabolism is reported as “Active”.

Test system: Bovine viral diarrhea virus 1
Experiment: Antiviral activity against Bovine viral diarrhea virus infected in human HuH7 cells by luciferase reporter gene assay
Assay type: functional, organism-based
Conditions: Bovine viral diarrhea virus isolates and strains, Huh-7

In order of falling EC50:
1. O=C(Cc1ccccc1)N1CCC[C@H]1c1nc2ccc(C#Cc3ccc4nc([C@@H]5CCCN5C(=O)Cc5ccccc5)oc4c3)cc2o1  7980 nM
2. CN(C)[C@@H](C(=O)N1CCC[C@H]1c1nc2cc(-c3cnc(-c4ccc5[nH]c([C@@H]6CCCN6C(=O)[C@@H](c6ccccc6)N(C)C)nc5c4)o3)ccc2[nH]1)c1ccccc1  4960 nM
3. CN(C)[C@@H](C(=O)N1CCC[C@H]1c1nc2cc(C#Cc3ccc4[nH]c([C@@H]5CCCN5C(=O)[C@@H](c5ccccc5)N(C)C)nc4c3)ccc2[nH]1)c1ccccc1  3420 nM
4. CN(C)[C@@H](C(=O)N1CCC[C@H]1c1nc2cc(C#Cc3ccc4oc([C@@H]5CCCN5C(=O)[C@@H](c5ccccc5)N(C)C)nc4c3)ccc2o1)c1ccccc1  1390 nM
5. CN(C)[C@@H](C(=O)N1CCC[C@H]1C(=O)Nc1ccc(-c2cnc(-c3cccc(NC(=O)[C@@H]4CCCN4C(=O)[C@@H](c4ccccc4)N(C)C)c3)o2)cc1)c1ccccc1  1220 nM
6. O=C(Cc1ccccc1)N1CCC[C@H]1c1ncc(-c2ccc(-c3ccc(-c4cnc([C@@H]5CCCN5C(=O)Cc5ccccc5)[nH]4)cc3)cc2)[nH]1  596 nM

Test system: Hepatitis C virus
Experiment: Antiviral activity against Hepatitis C virus genotype 1b infected in human HuH7 cells after 72 hrs by FRET assay
Assay type: functional, organism-based, Hepacivirus hominis
Conditions: Huh-7, 72 h

CN(C)[C@@H](C(=O)N1CCC[C@H]1c1nc2cc(-c3cnc(-c4ccc5[nH]c([C@@H]6CCCN6C(=O)[C@@H](c6ccccc6)N(C)C)nc5c4)o3)ccc2[nH]1)c1ccccc1 and CN(C)[C@@H](C(=O)N1CCC[C@H]1c1nc2cc(C#Cc3ccc4[nH]c([C@@H]5CCCN5C(=O)[C@@H](c5ccccc5)N(C)C)nc4c3)ccc2[nH]1)c1ccccc1 cannot be ordered by EC50: < 4.6 nM for the first, 0.075 nM for the second.

First: O=C(Cc1ccccc1)N1CCC[C@H]1c1ncc(-c2ccc(-c3ccc(-c4cnc([C@@H]5CCCN5C(=O)Cc5ccccc5)[nH]4)cc3)cc2)[nH]1
Second: O=C(Cc1ccccc1)N1CCC[C@H]1c1nc2ccc(C#Cc3ccc4nc([C@@H]5CCCN5C(=O)Cc5ccccc5)oc4c3)cc2o1
The EC50 of the first is lower: 0.33 nM for the first, > 1000 nM for the second. The first is the more potent here.

Going from CN(C)[C@@H](C(=O)N1CCC[C@H]1C(=O)Nc1ccc(-c2cnc(-c3cccc(NC(=O)[C@@H]4CCCN4C(=O)[C@@H](c4ccccc4)N(C)C)c3)o2)cc1)c1ccccc1 to CN(C)[C@@H](C(=O)N1CCC[C@H]1c1nc2cc(C#Cc3ccc4oc([C@@H]5CCCN5C(=O)[C@@H](c5ccccc5)N(C)C)nc4c3)ccc2o1)c1ccccc1, the EC50 rises from 0.39 nM to > 1000 nM. The first is the more potent here.
